US6441020B1, “Protein kinase C modulators. W” (priority 1995, dated 2002)

Tests used:
[1] = system: protein kinase C preparation; conditions: Irie and Koshimizu 1988; cited from earlier work
Raji cells = conditions: Irie and Koshimizu 1988; cited from earlier work
protein kinase C γ = target: T1, protein kinase C γ (Bos taurus, UniProt P05128); experiment: [3H]PDBu receptor binding assay, protein kinase C γ
T1 construct: Successful full-length expression of each isotype was confirmed by immunoblotting; made in house; host or cells: Sf9 or Sf158 insect cells (baculovirus)
Source text: (§1) Recombinant protein kinase Cα, β1, γ, ε, η, θ and μ were obtained as crude cell preparations as follows. The protein kinase C isotypes were expressed in Sf9 or Sf158 insect cells using recombinant baculoviruses as described (Patel and Stabel, 1989; Stabel, Schaap and Parker, 1991; Johannes et al., 1994). In the case of the θ isotype, human protein kinase Cθ was cloned in the plasmid vector pFlag-Mac and the protein expressed in E. coli strain DH5. Successful full-length expression of each isotype was confirmed by immunoblotting of infected insect cell or E. coli lysates with isotype-specific antibodies (Marais and Parker, 1989) as described (Liyange et al, 1992). Sf9 or Sf158 cells were infected with recombinant baculovirus isolates containing the specified protein kinase C isotype cDNAs (Parker et al, 1986; Coussens et al, 1986) or a non-protein kinase C-related adenovirus E1 a gene (Patel and Jones, 1990). After 3 days infected and uninfected control cells were collected by centrifugation at 600 RCF for 15 min and frozen. […]
(§2) The assay was carried out in 0.5 mL polypropylene centrifuge tubes. […] Specific and nonspecific binding values were then determined as described (Driedger and Blumberg, 1980b). […]

protein kinase C η = target: T2, protein kinase C η (Homo sapiens, UniProt P24723); experiment: [3H]PDBu receptor binding assay, protein kinase C η
T2 construct: Successful full-length expression of each isotype was confirmed by immunoblotting; made in house; host or cells: Sf9 or Sf158 insect cells (baculovirus)
Source text: as §1, §2

protein kinase C δ = target: T3, protein kinase C δ (Homo sapiens, UniProt Q05655); experiment: [3H]PDBu receptor binding assay, protein kinase C δ
T3 construct: made in house

[2] = system: phorbol 12-myristate 13-acetate induced ear inflammation/erythema; experiment: Mouse ear anti-inflammatory test against phorbol 12-myristate 13-acetate; assay type: in vivo, mice
Description: Method: A stock solution of 300 pmoles of the standard inflammatory compound phorbol 12-myristate 13-acetate per 5 μL acetone was prepared. This solution was used to prepare ten-fold dilutions of N^1,14-O-digeranyl-(9S,12S)-indolactam V, prepared as in Example 8, covering concentrations of the latter ranging from 3,500 to 350,000 pmoles per 5 μL.

protein kinase C ε = target: T4, protein kinase C ε (Homo sapiens, UniProt Q02156); experiment: [3H]PDBu receptor binding assay, protein kinase C ε
T4 construct: Successful full-length expression of each isotype was confirmed by immunoblotting; made in house; host or cells: Sf9 or Sf158 insect cells (baculovirus)
T4 sequence (Q02156 1-737): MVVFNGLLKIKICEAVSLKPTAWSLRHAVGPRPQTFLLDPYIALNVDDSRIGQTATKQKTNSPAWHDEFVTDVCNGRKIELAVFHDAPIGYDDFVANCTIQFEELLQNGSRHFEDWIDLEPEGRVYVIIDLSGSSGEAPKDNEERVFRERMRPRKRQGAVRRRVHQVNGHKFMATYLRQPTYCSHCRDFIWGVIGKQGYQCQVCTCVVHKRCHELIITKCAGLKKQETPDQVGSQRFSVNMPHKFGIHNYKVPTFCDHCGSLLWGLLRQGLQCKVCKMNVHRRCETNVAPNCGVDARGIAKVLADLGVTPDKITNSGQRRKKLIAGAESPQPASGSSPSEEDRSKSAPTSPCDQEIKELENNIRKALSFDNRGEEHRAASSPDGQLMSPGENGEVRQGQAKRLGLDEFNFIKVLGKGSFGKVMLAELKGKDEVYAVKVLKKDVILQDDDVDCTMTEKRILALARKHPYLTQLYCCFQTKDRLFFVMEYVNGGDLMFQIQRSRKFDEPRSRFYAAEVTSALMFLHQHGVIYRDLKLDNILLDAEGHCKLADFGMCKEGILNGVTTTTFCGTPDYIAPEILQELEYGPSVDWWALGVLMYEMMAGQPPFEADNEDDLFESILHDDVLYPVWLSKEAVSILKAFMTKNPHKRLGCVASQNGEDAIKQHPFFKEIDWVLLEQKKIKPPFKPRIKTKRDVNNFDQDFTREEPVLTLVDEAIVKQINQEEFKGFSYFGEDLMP
Source text: as §1, §2

protein kinase C μ = target: T5, protein kinase C μ (Homo sapiens, UniProt Q15139); experiment: [3H]PDBu receptor binding assay, protein kinase C μ
T5 construct: Successful full-length expression of each isotype was confirmed by immunoblotting; made in house; host or cells: Sf9 or Sf158 insect cells (baculovirus)
T5 sequence (Q15139 1-912): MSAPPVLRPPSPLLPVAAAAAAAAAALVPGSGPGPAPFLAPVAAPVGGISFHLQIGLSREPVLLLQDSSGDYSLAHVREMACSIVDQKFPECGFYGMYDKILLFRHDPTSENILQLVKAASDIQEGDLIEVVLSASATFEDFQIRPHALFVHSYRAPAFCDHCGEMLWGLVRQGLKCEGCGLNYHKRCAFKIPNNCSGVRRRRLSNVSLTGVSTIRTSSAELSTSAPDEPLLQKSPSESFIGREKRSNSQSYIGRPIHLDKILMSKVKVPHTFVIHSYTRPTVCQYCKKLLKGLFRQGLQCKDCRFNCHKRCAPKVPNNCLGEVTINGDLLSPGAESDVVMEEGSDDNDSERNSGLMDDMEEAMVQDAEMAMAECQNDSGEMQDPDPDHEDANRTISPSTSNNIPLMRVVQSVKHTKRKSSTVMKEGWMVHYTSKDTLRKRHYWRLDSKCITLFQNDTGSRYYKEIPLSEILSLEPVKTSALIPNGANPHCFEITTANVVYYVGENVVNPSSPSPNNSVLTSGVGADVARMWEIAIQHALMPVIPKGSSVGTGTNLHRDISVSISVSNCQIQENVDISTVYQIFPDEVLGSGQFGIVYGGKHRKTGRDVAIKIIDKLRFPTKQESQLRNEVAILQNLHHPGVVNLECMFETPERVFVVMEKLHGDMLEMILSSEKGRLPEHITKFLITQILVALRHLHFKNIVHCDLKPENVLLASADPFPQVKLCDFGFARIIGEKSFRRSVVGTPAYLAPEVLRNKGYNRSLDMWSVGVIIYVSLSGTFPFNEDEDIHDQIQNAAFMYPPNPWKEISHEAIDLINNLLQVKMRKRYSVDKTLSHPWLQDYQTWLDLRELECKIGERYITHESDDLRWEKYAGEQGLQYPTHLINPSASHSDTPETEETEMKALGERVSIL
Source text: as §1, §2

protein kinase Cα = target: T6, protein kinase Cα (Bos taurus, UniProt P04409); experiment: [3H]PDBu receptor binding assay, protein kinase C α
T6 construct: Successful full-length expression of each isotype was confirmed by immunoblotting; made in house; host or cells: Sf9 or Sf158 insect cells (baculovirus)
Source text: as §1, §2

human protein kinase Cθ = target: T7, human protein kinase Cθ (Homo sapiens, UniProt Q04759); experiment: [3H]PDBu receptor binding assay, protein kinase C θ
T7 construct: Successful full-length expression of each isotype was confirmed by immunoblotting; FLAG (from vector pFlag-Mac); made in house; host or cells: E. coli strain DH5
Source text: as §1, §2

T2 sequence (P24723 whole entry): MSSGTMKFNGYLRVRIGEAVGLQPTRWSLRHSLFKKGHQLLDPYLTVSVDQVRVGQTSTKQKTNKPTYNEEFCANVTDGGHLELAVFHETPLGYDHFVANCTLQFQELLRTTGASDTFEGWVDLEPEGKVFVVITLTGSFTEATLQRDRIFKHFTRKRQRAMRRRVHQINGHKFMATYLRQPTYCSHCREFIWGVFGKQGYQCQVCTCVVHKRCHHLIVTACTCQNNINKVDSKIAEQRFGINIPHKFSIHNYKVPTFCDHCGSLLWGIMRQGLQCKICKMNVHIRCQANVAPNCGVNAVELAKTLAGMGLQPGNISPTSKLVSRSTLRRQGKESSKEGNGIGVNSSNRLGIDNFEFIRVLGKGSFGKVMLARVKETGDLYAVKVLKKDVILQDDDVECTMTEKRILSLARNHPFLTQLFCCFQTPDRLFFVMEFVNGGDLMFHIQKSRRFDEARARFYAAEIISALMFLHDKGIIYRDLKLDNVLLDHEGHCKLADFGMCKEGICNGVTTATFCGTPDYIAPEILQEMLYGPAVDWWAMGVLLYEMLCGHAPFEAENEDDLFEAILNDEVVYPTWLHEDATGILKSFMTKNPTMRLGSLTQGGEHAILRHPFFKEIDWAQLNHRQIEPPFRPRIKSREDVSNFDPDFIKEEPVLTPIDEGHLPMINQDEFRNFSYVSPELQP
T7 sequence (Q04759 whole entry): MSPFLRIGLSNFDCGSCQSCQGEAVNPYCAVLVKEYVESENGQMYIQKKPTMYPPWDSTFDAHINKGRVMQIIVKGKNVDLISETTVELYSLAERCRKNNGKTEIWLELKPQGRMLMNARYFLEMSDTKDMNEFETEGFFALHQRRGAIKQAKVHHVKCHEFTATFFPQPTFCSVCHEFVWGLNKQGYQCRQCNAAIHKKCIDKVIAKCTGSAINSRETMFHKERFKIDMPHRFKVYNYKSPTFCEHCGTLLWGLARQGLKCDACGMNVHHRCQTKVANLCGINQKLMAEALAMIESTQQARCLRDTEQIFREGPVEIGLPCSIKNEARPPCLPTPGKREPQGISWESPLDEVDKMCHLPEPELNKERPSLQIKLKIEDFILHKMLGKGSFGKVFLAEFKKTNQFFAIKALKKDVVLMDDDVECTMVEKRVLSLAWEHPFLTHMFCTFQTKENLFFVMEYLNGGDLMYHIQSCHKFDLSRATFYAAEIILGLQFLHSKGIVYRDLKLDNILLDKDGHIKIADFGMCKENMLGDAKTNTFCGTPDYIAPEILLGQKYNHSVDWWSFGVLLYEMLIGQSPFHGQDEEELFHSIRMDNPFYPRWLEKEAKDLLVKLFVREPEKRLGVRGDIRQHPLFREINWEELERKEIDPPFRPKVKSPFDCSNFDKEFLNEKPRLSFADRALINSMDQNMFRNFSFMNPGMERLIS
T3 sequence (Q05655 whole entry): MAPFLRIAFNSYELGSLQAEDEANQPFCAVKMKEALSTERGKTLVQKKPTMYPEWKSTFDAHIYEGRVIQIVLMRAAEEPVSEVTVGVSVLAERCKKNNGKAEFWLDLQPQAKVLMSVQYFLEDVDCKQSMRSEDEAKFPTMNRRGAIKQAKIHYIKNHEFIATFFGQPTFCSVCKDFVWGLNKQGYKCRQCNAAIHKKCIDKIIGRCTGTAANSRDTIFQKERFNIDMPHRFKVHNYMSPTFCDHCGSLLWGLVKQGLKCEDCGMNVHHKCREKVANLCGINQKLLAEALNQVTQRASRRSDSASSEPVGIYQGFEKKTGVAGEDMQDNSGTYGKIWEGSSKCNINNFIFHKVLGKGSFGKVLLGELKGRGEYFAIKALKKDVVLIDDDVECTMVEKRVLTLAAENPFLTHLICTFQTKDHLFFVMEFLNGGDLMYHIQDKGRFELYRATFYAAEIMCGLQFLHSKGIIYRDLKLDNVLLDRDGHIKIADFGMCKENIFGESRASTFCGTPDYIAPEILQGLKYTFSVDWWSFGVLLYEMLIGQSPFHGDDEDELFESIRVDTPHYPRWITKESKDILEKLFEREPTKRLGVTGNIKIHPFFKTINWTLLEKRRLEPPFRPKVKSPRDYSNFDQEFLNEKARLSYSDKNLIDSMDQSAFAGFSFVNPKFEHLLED

## (−)-indolactam V
[1]
  Inhibition of binding of [3H]PMA to a protein kinase C preparation: very active
Raji cells
  Induction of Epstein-Barr virus early antigen: very active

## CCCCCCOC[C@@H]1Cc2c[nH]c3cccc(c23)N(C)[C@@H](C(C)C)C(=O)N1 [(−)-O-hexylindolactam V, 14-O-hexyl-(9S,12S)-indolactam V]
Raji cells
  Induction of Epstein-Barr virus early antigen: no induction of the Epstein-Barr virus early antigen in Raji cells could be detected

## CCCCOC[C@@H]1Cc2c[nH]c3cccc(c23)N(C)[C@@H](C(C)C)C(=O)N1 [(−)-14-O-butylindolactam V]
Raji cells
  Induction of Epstein-Barr virus early antigen: no induction of the Epstein-Barr virus early antigen in Raji cells could be detected

## CC(C)=CCC/C(C)=C/COC[C@@H]1Cc2cn(C/C=C(\C)CCC=C(C)C)c3cccc(c23)N(C)[C@@H](C(C)C)C(=O)N1 [N^1,14-O-digeranyl-(9S,12S)-indolactam V, N^1,14-O-Digeranyl-(9S,12S)-indolactam V]
Protein kinase C γ
  Ki: 6500 nM
Protein kinase C η
  Ki: 500 nM
Protein kinase C δ
  Ki: 900 nM
[2]; mouse ear, highest concentration (350,000 pmoles per 5 μL), observation to 48 hours
  Persistence of inhibition of PMA induced ear inflammation: inhibition persisting for the duration of the experiment at the highest concentration
[2]; mouse right ear, topical 5 μL acetone, 300 pmoles PMA, test compound 3,500 to 350,000 pmoles per 5 μL, observed 1 to 48 hours
  Inhibition of phorbol 12-myristate 13-acetate induced ear inflammation/erythema: Inhibition of the phorbol 12-myristate 13-acetate induced inflammation was observed at the medium and high concentrations
Protein kinase C ε
  Ki: 300 nM
Protein kinase C μ
  Ki: 500 nM
Protein kinase Cα
  Ki: 5900 nM
Human protein kinase Cθ
  Ki: 900 nM

## COC[C@@H]1Cc2c[nH]c3cccc(c23)N(C)[C@@H](C(C)C)C(=O)N1 [(−)-14-O-methylindolactam V, 14-O-methyl-(9S,12S)-indolactam V]
[1]
  Inhibition of binding of [3H]PMA to a protein kinase C preparation: did not measurably inhibit
Raji cells
  Induction of Epstein-Barr virus early antigen: no induction of the Epstein-Barr virus early antigen in Raji cells could be detected
